Measured values published in the supplement of paper PMC10307832.

Experiments:
Test in all cases: relative viability (nuclei count vs DMSO), 5 days (fraction); higher = more cells survive
MK-8033 + Linsitinib = compound: Cn1cc(-c2cnc3ccc4ccc(CS(=O)(=O)NCc5ccccn5)cc4c(=O)c3c2)cn1 [MK-8033] + C[C@]1(O)C[C@@H](c2nc(-c3ccc4ccc(-c5ccccc5)nc4c3)c3c(N)nccn32)C1 [Linsitinib] (partner 1 µM)
Method in brief: (§1)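 Lung cancer cell lines in 1536-well plates got either a single drug or a fixed anchor-drug dose together with five library-drug doses (not always all listed) in √10 steps, by pin tool, on the day after seeding. Nuclei were counted after 5 days, and relative viability is the treated-to-vehicle ratio of nuclei counts. Values are medians of duplicate plates.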

MK-8033 + Navitoclax = compound: Cn1cc(-c2cnc3ccc4ccc(CS(=O)(=O)NCc5ccccn5)cc4c(=O)c3c2)cn1 [MK-8033] + CC1(C)CCC(c2ccc(Cl)cc2)=C(CN2CCN(c3ccc(C(=O)NS(=O)(=O)c4ccc(N[C@H](CCN5CCOCC5)CSc5ccccc5)c(S(=O)(=O)C(F)(F)F)c4)cc3)CC2)C1 [Navitoclax] (partner 0.5 µM)
Method in brief: as §1

RU-SKI 43 + Pictilisib = compound: CC[C@@H](C)CNCC(=O)N1CCC2=C([C@@H]1COC3=CC=CC(=C3)C)C=CS2 [RU-SKI 43] + CS(=O)(=O)N1CCN(Cc2cc3nc(-c4cccc5[nH]ncc45)nc(N4CCOCC4)c3s2)CC1 [Pictilisib] (partner 1 µM)
Method in brief: as §1

RU-SKI 43 + Palbociclib = compound: CC[C@@H](C)CNCC(=O)N1CCC2=C([C@@H]1COC3=CC=CC(=C3)C)C=CS2 [RU-SKI 43] + CC(=O)c1c(C)c2cnc(Nc3ccc(N4CCNCC4)cn3)nc2n(C2CCCC2)c1=O [Palbociclib] (partner 0.5 µM)
Method in brief: as §1

Cell Line | relative viability (MK-8033 + Linsitinib; first compound 0.02 µM) | relative viability (MK-8033 + Linsitinib; first compound 0.06325 µM) | relative viability (MK-8033 + Linsitinib; first compound 0.2 µM) | relative viability (MK-8033 + Linsitinib; first compound 0.6325 µM) | relative viability (MK-8033 + Linsitinib; first compound 2 µM) | relative viability (MK-8033 + Navitoclax; first compound 0.02 µM) | relative viability (MK-8033 + Navitoclax; first compound 0.06325 µM) | relative viability (MK-8033 + Navitoclax; first compound 0.2 µM) | relative viability (MK-8033 + Navitoclax; first compound 0.6325 µM) | relative viability (MK-8033 + Navitoclax; first compound 2 µM) | relative viability (RU-SKI 43 + Pictilisib; first compound 0.1 µM) | relative viability (RU-SKI 43 + Pictilisib; first compound 0.3162 µM) | relative viability (RU-SKI 43 + Pictilisib; first compound 1 µM) | relative viability (RU-SKI 43 + Pictilisib; first compound 3.162 µM) | relative viability (RU-SKI 43 + Pictilisib; first compound 10 µM) | relative viability (RU-SKI 43 + Palbociclib; first compound 0.1 µM) | relative viability (RU-SKI 43 + Palbociclib; first compound 0.3162 µM) | relative viability (RU-SKI 43 + Palbociclib; first compound 1 µM) | relative viability (RU-SKI 43 + Palbociclib; first compound 3.162 µM) | relative viability (RU-SKI 43 + Palbociclib; first compound 10 µM)
NCI-H1703 | 0.552 | 0.762 | 0.556 | 0.89 | 0.446 | 0.967 | 1.08 | 0.988 | 1.12 | 0.924 | 0.253 | 0.209 | 0.263 | 0.273 | 0.219 | – | – | – | – | –
NCI-H1563 | 1.26 | 1.15 | 1.13 | 1.23 | 1.19 | – | – | – | – | – | 0.682 | 0.653 | 0.689 | 0.701 | 0.646 | – | – | – | – | –
LCLC-103H | 1.01 | 1.04 | 1.05 | 1.11 | 1.17 | – | – | – | – | – | 0.663 | 0.629 | 0.712 | 0.624 | 0.691 | 0.525 | 0.453 | 0.471 | 0.495 | 0.496
Calu-6 | 0.895 | 0.96 | 0.874 | 1.01 | 0.876 | 0.784 | 0.799 | 0.691 | 0.869 | 0.905 | 0.918 | 1.14 | 0.977 | 0.912 | 0.722 | – | – | – | – | –
ChaGo-K-1 | – | – | – | – | – | 1.2 | 0.962 | 0.945 | 1.04 | 0.922 | 1.07 | 0.75 | 1.12 | 0.435 | 0.495 | 0.919 | 1.05 | 1 | 0.976 | 0.956
IA-LM | 0.522 | 0.465 | 0.654 | 0.61 | 0.587 | 0.712 | 0.618 | 0.907 | 0.912 | 0.696 | 0.353 | 0.321 | 0.397 | 0.385 | 0.404 | – | – | – | – | –
NCI-H522 | – | – | – | – | – | – | – | – | – | – | – | – | – | – | – | 1.22 | 1.08 | 1.18 | 1.29 | 0.977
NCI-H650 | 0.868 | 0.91 | 0.85 | 0.805 | 0.773 | – | – | – | – | – | 0.947 | 0.793 | 0.829 | – | 0.926 | 0.344 | 0.312 | – | 0.338 | 0.337
SW 900 | – | – | – | – | – | – | – | – | – | – | – | – | – | – | – | 0.542 | 0.513 | 0.522 | 0.522 | 0.45
NCI-H2170 | – | – | – | – | – | 0.559 | 0.55 | 0.612 | 0.586 | 0.597 | 0.293 | 0.256 | 0.334 | 0.282 | 0.278 | 0.394 | 0.467 | 0.419 | 0.453 | 0.372
NCI-H596 | 0.978 | 1.1 | 1.04 | 1.1 | 1.09 | 0.923 | 0.884 | 0.856 | 0.857 | 0.951 | 0.379 | 0.43 | 0.42 | 0.414 | 0.57 | – | – | – | – | –
A549 | 0.627 | 0.571 | 0.52 | 0.515 | 0.581 | 1.22 | 1.13 | 1.16 | 1.19 | 1.14 | 0.511 | 0.742 | 0.594 | 0.439 | 0.384 | – | – | – | – | –
